Experimental data: patent US7498304B2, “Angiogenesis-modulating compositions and uses” (Curis, Inc., priority 2002, dated 2009)

Tested on: mouse cornea
Assay: mouse corneal pocket model of angiogenesis
Assay type: in vivo
Conditions: Ptc1-lacZ corneas
Protocol: To confirm the angiogenic activity of hedgehog in another well accepted model of angiogenesis, we tested the ability of hedgehog protein to induce neovascularization in the mouse corneal model pocket model of angiogenesis.
Animals were anesthetized by pentobarbital intraperitoneal injection (160 mg/kg). Corneal pockets were created in the eyes of each mouse and a 0.34×0.34 mm sucrose albumin sulfate (Bukh Meditec, Vaerlose, DK) pellet coated with hydron polymer type NCC (Interferon Sciences, New Brunswick, N.J.) containing 1 of the agents indicated below was implanted into the corneal pocket. […] mice were divided into 5 groups: control buffer alone; VEGF 300 ng/pellet; Myr-Shh vehicle alone; Myr-Shh 1.5 microg/pellet […]; Myr-Shh+VEGF (1.5 microg/pellet +300 ng/pellet, respectively). Pellets were positioned 1.0 mm from the corneal limbus, and erythromycin ophthalmic ointment (E. Fourera) was applied to each operated eye. The corneas of all mice were routinely examined by slit-lamp biomicroscopy on postoperative day 6 after pellet implantation.
On the same day vessel length and corneal circumferential neovascularity (in degrees) were measured. After completing these measurements, C57BL/6J mice received an intravenous injection of […] of BS-1 lectin FITC-conjugated (Vector Laboratories, Burlingame, Calif.). Thirty minutes later, the animals were sacrificed. The eyes were enucleated and fixed in 1% paraformaldehyde solution. After fixation, the corneas were placed on glass slides and examined by fluorescence microscopy.
To determine the mechanism by which Shh induces angiogenesis both Shh and VEGF-stimulated corneas (see Example 3) were excised and X-gal stained as described in Example 1 after fixation of the whole eye for 1 hour in 1% paraformaldehyde followed by enucleation and fixation of the corneal hemisphere in 1% paraformaldehyde for 30 minutes. […] Endothelial cell immunostaining was done with a rat monoclonal antibody against mouse CD-31 (Pharmigen, San Diego, Calif.) followed by a biotinylated goat anti-rat immunoglobulin secondary antibody. Smooth muscle cells and pericytes were identified with a mouse monoclonal antibody against SM a-actin conjugated with alkaline-phosphatase (Sigma, St. Louis, Mo.) and fibroblasts were identified using an anti-vimentin antibody (Sigma, St. Louis, Mo.).
We then immunostained the Shh-induced corneas with a rabbit polyclonal anti-VEGF antibody (Santa Cruz Biotechnology, Santa Cruz, Calif.) with a biotinylated goat anti-rabbit immunoglobulin as secondary antibody.

| Molecule | X-gal staining (Ptc 1 expression) of corneas |
| --- | --- |
| VEGF [reference compound] | did not stain with X-gal |

Same assay, conditions: compared with Shh

| Molecule | mean number of vascular lumens per cross section |
| --- | --- |
| VEGF [reference compound] | higher |

Same assay, conditions: pellet: Myr-Shh 1.5 microg or VEGF 300 ng

| Molecule | maximum vessel lengths | vessel diameters (mean) |
| --- | --- | --- |
| VEGF [reference compound] | 700±70 um | 8±3 um |

Same assay, conditions: pellet: Myr-Shh 1.5 microg or VEGF 300 ng, day 6

| Molecule | neovascular growth |
| --- | --- |
| VEGF [reference compound] | significant neovascular growth |

Tested on: Hedgehog pathway signaling (Shh-induced Gli-transcription) in 10T1/2(s12) cells
Assay: Gli-Luc assay, OCT-SHH-induced luciferase reporter
Assay type: cell-based, mouse
Conditions: Gli-Luc response, OCT-SHH 0.3 μg/ml
Protocol: Compounds to be tested are dissolved in DMSO to a concentration of 10 mM, and stored at −20° C. To activate the Hedgehog pathway in the assay cells, an octylated (lipid-modified) form of the N-terminal fragment of the Sonic Hedgehog protein (OCT-SHH) is used. This N-terminal SHH fragment is produced bacterially.
Compounds may be tested in the “Gli-Luc” assay below, using the cell line 10T(s12), wherein the cells contain a Hedgehog-responsive reporter construct utilizing Luciferase as the reporter gene. In this way, Hedgehog pathway signaling activity can be measured via the Gli-Luc response.
10t1/2(s12) cells are plated in a 96-well micro-titer plate (MTP) at 20,000 cells/well in full medium [DMEM with 10% FBS]. Then plates are placed in the incubator for incubation overnight (O/N), at 37° C. and 5% CO2. After 24 h, the medium is replaced with Luciferase-assay medium (DMEM with 0.5% FBS). Compounds are thawed and diluted in assay medium at 3:1000 (about 300-fold) resulting in a starting concentration of about 30 μM.
Subsequently, 150 μl of each 30 μM sample is added to the first wells (in triplicate). The MTP samples are then diluted at 3-fold dilutions to a total of seven wells, ultimately resulting in a regiment of seven dilutions in triplicate, for each compound. Next, the protein ligand OCT-SHH is diluted in Luciferase-assay medium and added to each well at a final concentration of 0.3 μg/ml. Plates are then returned to the incubator for further incubation O/N, at 37° C. and 5% CO2. After about 24 h, plates are removed from the incubator and the medium is aspirated/discarded. Wells are washed once with assay buffer [PBS+1 mM Mg^2+ and 1 mM Ca^2+]. Then 50 μl of assay buffer is added to each well. The Luciferase assay reagent is prepared as described by the vendor (LucLite kit from Packard), and 50 μl is added to each well. Plates are incubated at room temperature (RT) for about 30 minutes after which the signals are read, again at RT, on a Topcount (Packard).
The discovery of compounds that inhibit Shh-induced Gli-transcription exemplifies the utility of the claims in this patent.

| IC50 | Molecule |
| --- | --- |
| < 1 µM | CC(c1nc2ccccc2c(=O)n1-c1ccc(F)cc1)N(C)C(=O)Nc1cccc(SC(F)(F)F)c1 (stereo not drawn) [Compound 52] |
| < 5 µM | CC(c1nc2ccccc2c(=O)n1-c1ccc(F)cc1)N(C)C(=O)Nc1ccc([N+](=O)[O-])c(C(F)(F)F)c1 (stereo not drawn) [Compound 32] |
| < 1 µM | CCC(C)N(CCC(=O)NC1CCCc2ccccc21)C(=O)COc1ccc(Cl)cc1 (stereo not drawn) [Compound 49] |
| < 1 µM | O=C(NCc1nc2ccccc2c(=O)n1-c1ccc(F)cc1)Nc1ccc(Cl)c(Cl)c1 [Compound 68] |
| < 5 µM | CC(c1nc2ccccc2c(=O)n1-c1ccc(F)cc1)N(C)C(=O)Nc1cccc(C#N)c1 (stereo not drawn) [Compound 51] |
| < 10 µM | CCCCc1ccc(C(=O)N(Cc2ccccc2)C(CC)c2nc3ccccc3c(=O)n2-c2ccc(C)cc2)cc1 (stereo not drawn) [Compound 40] |
| < 0.5 µM | O=C(NCc1nc2ccccc2c(=O)n1-c1ccc(F)cc1)Nc1ccc(Cl)c([N+](=O)[O-])c1 [Compound 69] |
| < 5 µM | CC(c1nc2ccccc2c(=O)n1-c1ccc(F)cc1)N(C)C(=O)Nc1ccc(C(F)(F)F)cc1 (stereo not drawn) [Compound 54] |
| < 5 µM | CCC(=O)N1CCN(C(CC)c2nc3ccccc3c(=O)n2-c2ccc(C)cc2)C(C)C1 (stereo not drawn) [Compound 42] |
| < 5 µM | CCCN(C(=O)Nc1cccc(OC)c1)C(C)c1nc2ccccc2c(=O)n1-c1ccc(F)cc1 (stereo not drawn) [Compound 38] |
| < 10 µM | CCOC(=O)c1ccccc1NC(=O)N(C)C(C)c1nc2ccccc2c(=O)n1-c1ccc(F)cc1 (stereo not drawn) [Compound 63] |
| < 5 µM | CC(c1nc2ccccc2c(=O)n1-c1ccc(F)cc1)N(C)C(=O)Nc1ccc(SC(F)(F)F)cc1 (stereo not drawn) [Compound 60] |
| < 10 µM | CC(C)c1cccc(NC(=O)N(C)C(C)c2nc3ccccc3c(=O)n2-c2ccc(F)cc2)c1 (stereo not drawn) [Compound 57] |
| < 1 µM | O=C(NCc1nc2ccccc2c(=O)n1-c1ccc(F)cc1)Nc1cccc(C(F)(F)F)c1 [Compound 44] |
| < 10 µM | CCCCCCCCC(=O)N(CCCCC)C(C)c1nc2ccccc2c(=O)n1-c1ccccc1 (stereo not drawn) [Compound 41] |
| < 10 µM | CC(c1nc2ccccc2c(=O)n1-c1ccc(F)cc1)N(C)C(=O)Nc1ccc(-c2ccccc2)cc1 (stereo not drawn) [Compound 56] |
| < 1 µM | CC(c1nc2ccccc2c(=O)n1-c1ccc(F)cc1)N(C)C(=O)Nc1ccc(Cl)c(C(F)(F)F)c1 (stereo not drawn) [Compound 61] |
| < 0.5 µM | O=C(NCc1nc2ccccc2c(=O)n1-c1ccc(F)cc1)Nc1cc(Cl)nc(Cl)c1 [Compound 6] |
| < 5 µM | CC(c1nc2ccccc2c(=O)n1-c1ccc(F)cc1)N(C)C(=O)Nc1cccc(C(F)(F)F)c1 (stereo not drawn) [Compound 11] |
| < 10 µM | CC(c1nc2ccccc2c(=O)n1-c1ccc(F)cc1)N(C)C(=O)Nc1ccc(Cl)cc1[N+](=O)[O-] (stereo not drawn) [Compound 66] |
| < 10 µM | CC(c1nc2ccccc2c(=O)n1-c1ccc(F)cc1)N1CCN(C(=O)Nc2ccc(Cl)c(Cl)c2)CC1 (stereo not drawn) [Compound 43] |

| IC50 | Molecule |
| --- | --- |
| < 10 µM | CC(c1nc2ccccc2c(=O)n1-c1ccc(F)cc1)N(Cc1ccco1)C(=O)Nc1cccc(F)c1 (stereo not drawn) [Compound 31] |
| < 5 µM | CC(c1nc2ccccc2c(=O)n1-c1ccc(F)cc1)N(C)C(=O)Nc1cccc(F)c1 (stereo not drawn) [Compound 55] |
| < 10 µM | CC(c1nc2ccccc2c(=O)n1-c1ccc(F)cc1)N(C)C(=O)Nc1ccc([N+](=O)[O-])cc1Cl (stereo not drawn) [Compound 64] |
| < 0.1 µM | O=C(NCc1nc2ccccc2c(=O)n1-c1ccc(F)cc1)Nc1ccc(Cl)c(C(F)(F)F)c1 [Compound 5] |
| < 5 µM | CCCN(C(=O)Nc1cccc(Cl)c1)C(C)c1nc2ccccc2c(=O)n1-c1ccc(F)cc1 (stereo not drawn) [Compound 34] |
| < 5 µM | CCCN(C(=O)Nc1cccc(C(F)(F)F)c1)C(C)c1nc2ccccc2c(=O)n1-c1ccc(F)cc1 (stereo not drawn) [Compound 36] |
| < 5 µM | CCC(c1nc2ccccc2c(=O)n1-c1ccc(C)cc1)N(CCc1ccccc1)C(=O)CCCCF (stereo not drawn) [Compound 39] |
| < 5 µM | O=C(NCCCc1nc2ccccc2c(=O)n1-c1ccc(F)cc1)Nc1cccc(C(F)(F)F)c1 [Compound 74] |
| < 5 µM | CC(c1nc2ccccc2c(=O)n1-c1ccc(F)cc1)N(C)C(=O)Nc1cc(Cl)nc(Cl)c1 (stereo not drawn) [Compound 58] |
| < 0.5 µM | CCC(c1nc2ccccc2c(=O)[nH]1)N1CCN(C(=O)c2ccc(-c3ccccc3)cc2)C(C)C1 (stereo not drawn) [Compound 46] |
| < 5 µM | Cc1c(NC(=O)N(C)C(C)c2nc3ccccc3c(=O)n2-c2ccc(F)cc2)cccc1[N+](=O)[O-] (stereo not drawn) [Compound 59] |
| < 10 µM | COc1cccc(NC(=O)NCc2nc3ccccc3c(=O)n2-c2ccc(F)cc2)c1C [Compound 71] |
| < 1 µM | CC(c1nc2ccccc2c(=O)n1-c1ccc(F)cc1)N(C)C(=O)Nc1ccc(Cl)c(Cl)c1 (stereo not drawn) [Compound 53] |
| < 5 µM | CCC(c1nc2ccccc2c(=O)[nH]1)N1CCN(C(=O)Nc2ccc(Cl)c(Cl)c2)C(C)C1 (stereo not drawn) [Compound 45] |
| < 5 µM | CCCN(CCC(=O)NC1CCCc2ccccc21)C(=O)c1cc(OC)cc(OC)c1 (stereo not drawn) [Compound 47] |
| < 1 µM | O=C(Cc1cccc(C(F)(F)F)c1)NCCc1nc2ccccc2c(=O)n1-c1ccc(F)cc1 [Compound 50] |
| < 5 µM | Cc1c(NC(=O)NCc2nc3ccccc3c(=O)n2-c2ccc(F)cc2)cccc1SC(F)(F)F [Compound 67] |
| < 5 µM | CC(NC(=O)Nc1cccc(C(F)(F)F)c1)c1nc2ccccc2c(=O)n1-c1ccc(F)cc1 (stereo not drawn) [Compound 73] |
| < 0.5 µM | CCC(C)N(CCC(=O)NC1CCCc2ccccc21)C(=O)c1cccc2ccccc12 (stereo not drawn) [Compound 48] |
| < 5 µM | O=C(Nc1cccc(C(F)(F)F)c1)NC(c1nc2ccccc2c(=O)n1-c1ccc(F)cc1)C1CC1 (stereo not drawn) [Compound 75] |

| Molecule | IC50 |
| --- | --- |
| CC(c1nc2ccccc2c(=O)n1-c1ccc(F)cc1)N(C)C(=O)Nc1ccc([N+](=O)[O-])c(Cl)c1 (stereo not drawn) [Compound 62] | < 1 µM |
| CCOOC(=O)c1cccc(NC(=O)N(C)C(C)c2nc3ccccc3c(=O)n2-c2ccc(F)cc2)c1 (stereo not drawn) [Compound 65] | < 10 µM |
